The values that follow come from patent publication US20090192071A1, “USE OF PHOTODYNAMIC THERAPY TO ENHANCE TREATMENT WITH IMMUNO-MODULATING AGENTS” (DUSA PHARMACEUTICALS, INC., priority 2004, published 2009).

Data set [1] has as its system Basal Cell Carcinoma. Kind of data set: Combination therapy (ALA photodynamic therapy plus imiquimod) in a patient with Basal Cell Carcinoma. The data set is classed as in vivo. The settings on record: Example 3: ALA topical cream, red light several hours later, then a course of imiquimod. How it is done:
A patient with a Basal Cell Carcinoma is administered ALA in the form of a topical cream, which is applied to the affected areas. Several hours after administration of the ALA, the patient is exposed to an activating red light. Subsequently, the patient is administered a course of imiquimod therapy.

Data set [2] is described as follows: Combination therapy (ALA photodynamic therapy plus imiquimod) in a patient with warts. The data set is classed as in vivo. The following applies: Example 7: ALA topical cream, white light several hours later, then reduced course of imiquimod. As to the method:
A patient with warts is administered ALA in the form of a topical cream, which is applied to the affected area. Several hours after administration of the ALA, the patient is exposed to white light. Subsequently, the patient is administered a reduced course of imiquimod therapy.

For data set [3] the following is noted: cited from earlier work.
The nature of data set [4]: Combination therapy (ALA photodynamic therapy plus alefacept) in patients with psoriasis. The settings on record: for alleviation of symptoms: then reduced course of alefacept. Format: in vivo, patient.

Regarding `NCC(=O)CCC(=O)O` [ALA, 5-Amino-4-oxopentanoic acid], in data set [1], the “resolution of the cancerous lesion” value was “rapid and complete resolution of the cancerous lesion”. The alleviation of symptoms result was “alleviation of symptoms soon after receiving the treatment” in data set [2]; “alleviation of symptoms soon after receiving the treatment” in data set [4] (Example 4: ALA topical cream, activating light several hours later); “alleviation of symptoms soon after receiving the treatment” in data set [4] (Example 5: ALA i.v. injection, 5 J/cm^2 of 417 nm blue light after one to three hours); “alleviation of symptoms soon after receiving the treatment” in data set [4] (Example 6: oral ALA, 10 J/cm^2 of 417 nm blue light after one to three hours). Moreover, in data set [3], the solubility in water entry was “water soluble”. In addition, the improvement of psoriasis result in data set [4] (Example 1: several patients, topical ALA, then Intense Pulsed Light (IPL), then alefacept as normally done) is given as “almost immediate improvements”. Also, the “return of psoriatic symptoms after cessation of alefacept therapy” value in data set [4] (Example 2: topical ALA and blue light after a completed alefacept treatment cycle) is reported as “less return of their psoriatic symptoms”.
